Measurements reported in patent US8993632B2, “Inhibitors of the 11-beta-hydroxysteroid dehydrogenase type 1 enzyme” (AbbVie Inc., priority 2005, dated 2015).

Columns and labels:
HSD-1 = assay: Monkey ex vivo HSD1 activity (cortisone to cortisol in harvested tissue); design: species or system Cynomolgus Monkeys; conditions: for HSD-1 ex vivo activity, Mean % Veh Control: single 10 mg/kg oral dose
Protocol: Harvested tissues (approximately 150 mg) were minced into small, 2 mm pieces in the presence of 5× volume of incubation buffer. Cortisone at final concentrations of 0, 3, 10 or 30 μM was added to each well. Cell culture plates with tissues were incubated at 37° C. for three hours. Two-hundred μL of tissue culture supernatant was then removed and spun at 1000 rpm in an Eppindorf tube, and then 100 μL of resulting supernatant was aliquotted into two tubes for LCMS analysis of cortisol.

CD-1 mice = assay: 24-hour inhibitory avoidance task in mice after drug-in-diet dosing; format: in vivo; conditions: both doses (10 and 100 mg/kg/day in Western diet), vs vehicle control mice
Protocol: The 24-hour inhibitory avoidance task in mice is a measure of one-trial learning and memory consolidation in response to a discrete aversive event (foot-shock). Mice are first placed in an illuminated compartment of a two-compartment apparatus. Mice will naturally step through into an adjoining dark compartment, which they prefer. When the mice enter the dark they receive a mild foot-shock. To assess memory, mice are tested 24 hours later and the length of time the animal refrains from entering the dark compartment is recorded (higher latencies indicate improved memory for the aversive event).
Male CD-1 mice were obtained from Charles River, Wilmington, Mass. Mice were group-housed 10 per cage. The body weight upon arrival was 20-25 g. Food and water were available ad libitum except during experiments. […]
On the first day of testing (17 days after drug-in-diet was presented) mice were removed from the colony room in their home cage, brought to the testing room, and left undisturbed for 2 hours prior to testing initiation. […] The latency to enter the dark chamber was recorded and was the dependent variable measured for assessing memory retention (latency is defined as entry of the whole mouse; all 4 paws on the grids in the dark side, plus the tail in the chamber for 5 sec; 180 sec is maximum latency). Data were analyzed using Mann Whitney U comparisons. […]

phosphorylated CREB = assay: Phosphorylated CREB immunohistochemistry in brain after food-in-diet dosing; format: in vivo, mice; conditions: 18 days food-in-diet (10 and 100 mg/kg/day)
Protocol: In vivo signaling studies were conducted to examine the biochemical pathways that may be mechanistically involved in the cognitive efficacy associated with Compound KK. An important signaling process that serves as a biochemical correlate of synaptic plasticity underlying learning and memory is the phosphorylation of CREB (c-AMP-response element binding protein), a transcription factor critical to long-term memory. To investigate the effects of Compound KK on CREB phosphorylation, CD1 mice treated and tested (data presented in FIG. 1) were given a 24-hour rest after testing before immunohistochemical procedures commenced.
Male CD-1 mice were obtained from Charles River, Wilmington, Mass. Mice were group-housed 10 per cage. The body weight upon arrival was 20-25 g. […]
Compound KK was administered via a drug-in-diet administration (100 mg/kg/day in Western diet) or (10 mg/kg/day in Western diet). […] Immuno-reactivity (IR) was quantified using an image analysis system (Leica, Quantimet 500) that determined number and/or area of peroxidase substrate-positive stained neurons from digitized photomicrographs according to a pixel gray level empirically determined prior to analysis. Overall statistical significance was determined using a one-way ANOVA, with Dunnett's post hoc analyses used to determine significance (p<0.05 was considered significant).

Fisher rats = assay: Rat EEG REM sleep parameters; format: in vivo; conditions: 30 mg/kg, 3 times at 24, 26, and 0.1 hours before measurement; 8 h EEG
Protocol: EEG of Fisher rats (n=8/group) with chronically implanted supracortical EEG-electrodes were analyzed for an 8 h period. Intraindividual drug-induced changes of power spectra were analyzed. For REM sleep the number of REM episodes, latency to first REM, and total REM time was analyzed.

Sprague Dawley rats = assay: Short-term social recognition memory in the rat; format: in vivo; conditions: 30 mg/kg po at 24, 18 and 1 hour before first juvenile exposure, vs vehicle control rats
Protocol: Social memory and social cognition are impaired in disorders such as Alzheimer's disease and schizophrenia. One of the more commonly used preclinical models of social recognition memory is short-term social recognition in the rat, a model of short-term memory based on the recognition of a juvenile rat by an adult rat. […] The juvenile rat is then removed and reintroduced 120 min later, and interactive behavior of the adult rat is again monitored. If memory has been lost over the interval between trials 1 and 2, the extent of interaction is equal (expressed as a ratio of investigation time of T1/T2) and the ratio will be close to 1. However, if the adult remembers the juvenile, the investigation ratio declines. To test for non-specific effects, a novel juvenile is introduced at 120 minutes instead of the familiar juvenile. […]
Rats were pre-dosed po at 24, 18 and 1 hour before first juvenile rat exposure with vehicle, or Compound MM (30 mg/kg). […] The time the adult spent exploring (sniffing, grooming, close following) the juvenile during this test session was recorded, and defined as the first investigation duration. […] Data were analyzed using a one-way analysis of variance. If there was a significant effect, subsequent post hoc significance was determined using Dunnett's multiple comparison testing (p<0.05 was regarded as significant).

ACh release = assay: Microdialysis, cortical/hippocampal acetylcholine levels; format: in vivo, Sprague Dawley rats; conditions: single administration 30 mg/kg, p.o.
Protocol: (§1) Microdialysis studies (resting or challenging conditions) in freely moving, male Sprague Dawley rats (Janvier, 295-315 g, n=5-8/treatment group) were performed using stereotactically instrumented microdialysis probes (CMA/12-14-2): mPFC, hippocampus. Aliquots of the same microdialysate fractions (6 before, and 9-12 after compound administration) were analyzed either for acetylcholine or for serotonin by HPLC and electrochemical detection.

serotonin (5-HT) levels = assay: Microdialysis, cortical/hippocampal serotonin levels; format: in vivo, Sprague Dawley rats; conditions: single administration 30 mg/kg, p.o.
Protocol: as §1
This is a feature shared by marketed anti-depressive drugs and might indicate the potential use for 11β-HSD1 inhibitors as antidepressants/anxiolytic drugs. These findings remain to be confirmed by (i) investigating 11β-HSD1 inhibitors from different chemotype(s) in selected microdialysis studies and/or (ii) in animal models of depression/anxiety.

Compound | ex vivo inhibition of HSD1 in monkey brain, fat and liver (HSD-1; 2.5 and 16 hours following a single oral 10 mg/kg dose) | HSD-1 ex vivo activity, Mean % Veh Control (HSD-1; Cerebral Cortex, 16 hours) [%] | HSD-1 ex vivo activity, Mean % Veh Control (HSD-1; Hippocampus, 16 hours) [%] | HSD-1 ex vivo activity, Mean % Veh Control (HSD-1; Liver, 2.5 hours) [%] | HSD-1 ex vivo activity, Mean % Veh Control (HSD-1; Liver, 16 hours) [%] | HSD-1 ex vivo activity, Mean % Veh Control (HSD-1; Mesenteric Fat, 2.5 hours) [%] | HSD-1 ex vivo activity, Mean % Veh Control (HSD-1; Mesenteric Fat, 16 hours) [%] | memory retention (Mean Transfer Latency), FIG. 1 (CD-1 mice) | phosphorylated CREB, FIG. 2 (phosphorylated CREB) | increase of latency to first REM (Fisher rats) [%] | reduction of REM time (Fisher rats) [%] | reduction of number of REM sleep episodes (Fisher rats) [%] | reduction of total sleep time (Fisher rats) [%] | short-term memory retention, FIG. 4 (Sprague Dawley rats) | ACh release under resting conditions (ACh release; acute) | ACh release under challenging conditions (novel cage), cortex and hippocampus (ACh release) | serotonin (5-HT) levels in the medial prefrontal cortex and in the hippocampus (serotonin (5-HT) levels)
CC(C)(Oc1ccc(F)cc1Cl)C(=O)NC1C2CC3CC1CC(S(C)(=O)=O)(C3)C2 (centres unmarked) [Compound KK, 2-(2-Chloro-4-fluorophenoxy)-2-methyl-N-[(E)-5-(methylsulfonyl)-2-adamantyl]propanamide] | potent ex vivo inhibition | 30 | 42 | 38 | 9 | 90 | 50 | significant improvement in memory retention | increase in phosphorylated CREB | – | – | – | – | – | – | – | –
O=C(CN1CCN(c2ccc(C(F)(F)F)cn2)CC1)NC1C2CC3CC1CC(O)(C3)C2 (centres unmarked) [Compound MM, N-[(E)-5-Hydroxy-2-adamantyl]-2-{-4-[5-(trifluoromethyl)pyridin-2-yl]piperazin-1-yl}acetamide] | – | – | – | – | – | – | – | – | – | 62 | 23 | 16 | 10 | significant improvement in short-term memory retention | did not change ACh release | did not induce any further stimulation of ACh release | long-lasting increase
